Test results: PubChem BioAssay (NCI)
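Protocol summary: plate cells (96-well), add compound at 5 concentrations, incubate 48 h, interpolate endpoints linearly. Here, GI50 denotes the concentration required for 50% inhibition of growth. The concentration for full growth arrest is given as TGI.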

Legend:
Assay in all cases: DTP human tumour cell line panel, 48 h
PC-3 prostate = test system: PC-3 prostate
MALME-3M melanoma = test system: MALME-3M melanoma
OVCAR-8 ovarian = test system: OVCAR-8 ovarian
UACC-62 melanoma = test system: UACC-62 melanoma
SW-620 colon = test system: SW-620 colon
LOX IMVI melanoma = test system: LOX IMVI melanoma
K-562 leukemia = test system: K-562 leukemia
HCC-2998 colon = test system: HCC-2998 colon
786-0 renal = test system: 786-0 renal
SF-295 CNS = test system: SF-295 CNS

SMILES	GI50 (PC-3 prostate)	TGI (PC-3 prostate)	GI50 (MALME-3M melanoma)	TGI (MALME-3M melanoma)	GI50 (OVCAR-8 ovarian)	TGI (OVCAR-8 ovarian)	GI50 (UACC-62 melanoma)	TGI (UACC-62 melanoma)	GI50 (SW-620 colon)	TGI (SW-620 colon)	GI50 (LOX IMVI melanoma)	TGI (LOX IMVI melanoma)	GI50 (K-562 leukemia)	TGI (K-562 leukemia)	GI50 (HCC-2998 colon)	TGI (HCC-2998 colon)	GI50 (786-0 renal)	TGI (786-0 renal)	GI50 (SF-295 CNS)	TGI (SF-295 CNS)
COc1cc2c3c(n(CCCN=[N+]=[N-])c(=O)c2cc1OC)-c1ccc(NC(C)=O)cc1C3=O	> 50 µM	> 50 µM	> 50 µM	> 50 µM	> 50 µM	> 50 µM	> 50 µM	> 50 µM	> 50 µM	> 50 µM	> 50 µM	> 50 µM	> 50 µM	> 50 µM	> 50 µM	> 50 µM	> 50 µM	> 50 µM	8.96 µM	> 50 µM
Cn1c(=S)c2[nH]c(SCc3cccnc3)nc2n(C)c1=O		> 100 µM		> 100 µM		> 100 µM		> 100 µM		> 100 µM		> 100 µM		> 100 µM		> 100 µM		> 100 µM		> 100 µM
CCN1Cc2c(/C=C/c3ccccc3)nc3ccc(OC)cc3c2N(c2cccc(Cl)c2)C1	1.79 µM	5.64 µM	1.68 µM	3.52 µM	1.84 µM	4.29 µM	1.49 µM	3.06 µM	1.67 µM	3.29 µM	1.7 µM	3.51 µM			1.64 µM	3.14 µM	3.17 µM	8.83 µM	1.69 µM	3.6 µM
Cc1nc2sc(C(=O)Nc3cccc(Cl)c3C)c(N)c2cc1C(O)c1ccccc1 (centres undefined)	0.0439 µM	24.4 µM	0.0536 µM	18.5 µM	0.0512 µM	35.3 µM	0.087 µM	12 µM	0.0331 µM	15.4 µM	0.0599 µM	10.9 µM	0.0302 µM	> 48.6 µM	0.106 µM	2.36 µM	0.0667 µM	9.51 µM	0.0333 µM	5.08 µM
CN1CCC(n2cnc(-c3ccc(F)cc3)c2-c2ccnc(Nc3ccccc3)n2)CC1	12.2 µM	> 25 µM	4.77 µM	12.4 µM	8.86 µM	> 25 µM	6.54 µM	> 23 µM	7.88 µM	> 25 µM	5.78 µM	> 25 µM	5.94 µM	> 25 µM	6.76 µM	> 25 µM	8.4 µM	> 25 µM	> 19.2 µM	> 25 µM
O=CCC(O)C(O)C(O)CO (centres undefined)	> 100 µM	> 100 µM	> 100 µM	> 100 µM	> 100 µM	> 100 µM	> 100 µM	> 100 µM	> 100 µM	> 100 µM	> 100 µM	> 100 µM	> 100 µM	> 100 µM	> 100 µM	> 100 µM	> 100 µM	> 100 µM	> 100 µM	> 100 µM
C=C(C)C1Cc2cc(C(C)=O)ccc2O1 (centres undefined)		> 100 µM		> 100 µM		> 100 µM		> 100 µM		> 100 µM		> 100 µM		> 100 µM		> 100 µM		> 100 µM		> 100 µM
O=C1c2ccccc2-c2c1c1ccc3ccccc3c1n2-c1ccccc1	35.7 µM	> 100 µM	28.1 µM	66.2 µM	23 µM	54.7 µM	20.4 µM	44.2 µM	59.5 µM	> 100 µM	39 µM	> 100 µM	> 100 µM	> 100 µM	30.5 µM	94.4 µM	25.3 µM	53.9 µM	22.9 µM	67.4 µM
C=CC(=O)N1CCC(CNc2ncnc(N)c2-c2ccc(Oc3ccccc3)cc2)CC1	24.9 µM	> 100 µM	23.9 µM	67 µM	27.5 µM	> 100 µM	16 µM	34.8 µM	33.5 µM	> 100 µM	16.3 µM	33.2 µM	22.5 µM	> 100 µM	21 µM	46.7 µM	17.7 µM	92.9 µM	29 µM	> 100 µM
Clc1ccc2c(NCCNc3nc(N4CCCCC4)nc4ccccc34)ccnc2c1	3.17 µM	14.4 µM	2.05 µM	4.05 µM	2.17 µM	5.18 µM	1.95 µM	3.7 µM	1.34 µM	3.33 µM	1.58 µM	3.36 µM			2.22 µM	6.26 µM	1.31 µM	2.78 µM	1.71 µM	3.23 µM
COC(=O)[C@]12CC[C@@H](C)[C@H](C)[C@@H]1C1=CC[C@@H]3[C@@]4(C)C(C=O)=C[C@@](C)(COC(=O)c5ccco5)C4=CC[C@@]3(C)[C@]1(C)CC2	2.97 µM	> 100 µM	0.0383 µM	0.444 µM	3.67 µM	15.9 µM	0.0831 µM	2.24 µM	3.1 µM	11.2 µM	1.7 µM	3.15 µM	3.7 µM	17.3 µM	2.76 µM	7.17 µM	2.97 µM	9.17 µM	2.39 µM	8.83 µM
CCCCc1n(Cc2ccc3ccccc3n2)cc[n+]1Cc1ccc2ccccc2c1	0.786 µM	2.5 µM	0.643 µM	2.21 µM	1.03 µM	3.17 µM	0.579 µM	1.86 µM	1.31 µM	4.75 µM	0.736 µM	1.95 µM	0.359 µM	2.36 µM	0.641 µM	2.01 µM	1.6 µM	3.89 µM	1.37 µM	4.4 µM
COc1ccccc1N1CCN(CC(O)Cn2c(=O)c3c(OC)nc(C)cc3c(=O)n2-c2ccccc2)CC1 (centres undefined)	43 µM	> 100 µM	> 100 µM	> 100 µM			64.9 µM	> 100 µM	> 100 µM	> 100 µM	30.5 µM	> 100 µM	> 100 µM	> 100 µM	> 100 µM	> 100 µM	24.3 µM	76.9 µM	25.8 µM	> 100 µM
